This is an account of results in US7368462B1, “Melanin concentrating hormone antagonists” (The Procter & Gamble Company, priority 2004, dated 2008).

For one assay, the target named is T1, 5-HT2c receptor (Homo sapiens, UniProt P28335).
T1 sequence (P28335 33-458): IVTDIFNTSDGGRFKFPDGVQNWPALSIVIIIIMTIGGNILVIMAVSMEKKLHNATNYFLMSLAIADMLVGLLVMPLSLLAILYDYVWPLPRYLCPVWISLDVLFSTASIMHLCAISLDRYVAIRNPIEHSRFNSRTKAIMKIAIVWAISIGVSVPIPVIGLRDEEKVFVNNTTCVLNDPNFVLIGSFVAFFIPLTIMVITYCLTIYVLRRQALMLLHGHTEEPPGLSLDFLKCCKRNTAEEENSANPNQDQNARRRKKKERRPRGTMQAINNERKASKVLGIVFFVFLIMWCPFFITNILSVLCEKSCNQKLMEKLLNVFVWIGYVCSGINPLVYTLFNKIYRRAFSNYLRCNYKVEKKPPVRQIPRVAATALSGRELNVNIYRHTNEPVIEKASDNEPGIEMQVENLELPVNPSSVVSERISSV
Nature of the assay: 5-HT2c receptor binding assay (3H-mesulergine competition). How it is done: Binding assays for serotonin receptor, 5-HT2c receptor MCH antagonist compounds are evaluated for binding to the serotonin 5-HT2c receptor to determine receptor selectivity. Binding activity is assessed using a competitive assay with ^3H-mesulergine (Perkin Elmer), a 5-HT2c selective ligand, on membrane containing the 5-HT2c receptor. Briefly, 1 nM ^3H-mesulergine and varying concentrations of the compound are incubated with 5-HT2c receptor membranes, following an incubation period, the membranes are washed and ^3H-mesulergine bound to membranes is measured in a liquid scintillation counter. The amount of bound ^3H-mesulergine at the varying concentration of competitor compound is used to derive the affinity (Ki) of the compound for the 5-HT2c receptor. 5-HT2c receptor containing membranes are readily available from several companies including Perkin-Elmer and Euroscreen.

The target of another assay is MCH1R (UniProt Q99705). Kind of assay: MCH1R competition binding assay. How it is done: In vitro binding and function assays are performed on membranes derived from cells or tissues expressing endogenous MCH1R. Competition binding assays are performed to identify high affinity compounds. Briefly, either radiolabeled or europium labeled MCH with varying concentrations of competitor compound which are incubated with membranes expressing the receptor. Rat brain membrane or cell lines, including but not limited to human Kelly neuroblastoma cells, A-431 epidermoid cells, and rat PC-12 cells are known to express endogenous MCH1R and are used in the assay. Binding is allowed to proceed until equilibrium is reached then bound labeled MCH is separated from free MCH by capturing membranes onto a filter. The filters are washed to remove loosely associated MCH and labeled MCH is quantified. Data is analyzed and IC50 and Ki are calculated to determine compound affinity.

Regarding `CN(C)Cc1ccc2c(CNC(=O)c3ccc(-c4ccc(F)cc4)cc3)cccc2c1` [4′-Fluoro-biphenyl-4-carboxylic acid (6-dimethylaminomethyl-naphthalen-1-ylmethyl)-amide], the IC50 on 5-HT2c receptor was 1130 nM; on MCH1R it was 12 nM.
The corresponding values for `CCN(CC)Cc1ccc2c(CN(C)C(=O)c3ccc(-c4ccc(C(F)(F)F)cc4)cc3)cccc2c1` [4′-Trifluoromethyl-biphenyl-4-carboxylic acid (6-diethylaminomethyl-naphthalen-1-ylmethyl)-methyl-amide] are 2060 nM and 70 nM.

Usually IC50 stands for the point on the concentration scale where inhibition reaches its midpoint. A high value points to weaker potency in that assay.
